Measurements: publication PMC8156151 (The European Respiratory Journal, 2021)
Read-outs that look alike come from different tables or passages of the source.

How the values were obtained:
Format in all cases: in vivo, human
MIF = experiment: Plasma biomarker MIF; details: for MIF raw data, Mean (SD) / MIF least square means % baseline±SEM: IPF patients
Description: (§1) All patients, investigators, sites and study sponsor personnel were blinded to the study group assignments throughout the study. Patients underwent study-specific assessments on days 2, 3, 7, 14 and 15, and a post-study assessment was carried out 26–30 days after the last day of the study period. Assessments included vital signs (supine blood pressure, pulse, oxygen saturation, oral temperature and respiratory rate), spirometry, 12-lead ECG, physical examination, laboratory safety screen (haematology, biochemistry, urinalysis and urinary drugs of abuse screen) and blood sampling for PK measurements. All adverse events and concomitant medications were recorded from the time of the screening visit until the post-study follow-up visit. BAL was performed at day −1 (24 h before the first dose) and at day 14 (2 h after the last dose). The BAL procedure was performed as per international guidelines. Briefly, 240 mL of 0.9% saline at room temperature was instilled in 40 mL aliquots into the right middle lobe and aspirated by suction after each aliquot.
(§2) BAL cells were separated from fluid by centrifugation, and cells were collected, stained with antibodies (supplementary material) and then fixed before analysis using a LSR Fortessa flow cytometer (Becton Dickinson, Franklin Lakes, NJ, USA). Data were analysed using FlowJo software (Tree Star, Ashland, OR, USA). Macrophages were identified as having high side scatter properties and human leukocyte antigen-DR positivity. Gal-3 expression (mean fluorescence intensity) was determined from the macrophage gate (supplementary figures S1 and S2). […] Samples were analysed by magnetic Luminex assay (R&D Systems, Minneapolis, MN, USA) or ELISA.
(§3) For part 2 of the study, placebos were combined from the three dose-specific cohorts into a pooled control group (n=9). For alveolar macrophage Gal-3 expression and the plasma biomarkers, ANCOVA was performed for percentage of baseline ((day 14/day 1)×100). The ANCOVA model included effects for treatment group and baseline (day 1) value. […] An additional analysis including dose as a continuous covariate was also performed. The Pearson correlation coefficient (r) and associated p-value were calculated for percentage of baseline and day 14 values between plasma biomarkers and alveolar macrophage Gal-3 expression. […] The analysis is exploratory and there was no pre-planned adjustment for multiple testing; the study was not powered for this. Alveolar macrophage Gal-3 expression was considered the primary exploratory analysis with the pre-selected biomarkers secondary. A Bonferroni correction for multiple testing of the secondary end-points comparing the 10 mg group with placebo gives a critical value of 0.0063. Data are presented as the difference in least square means with 95% confidence interval and p-value unless otherwise stated. All analyses were performed using SAS version 9.4 (SAS Institute, Cary, NC, USA). […]

PDGF-AA = experiment: Plasma biomarker PDGF-AA; details: for PDGF-AA raw data, Mean (SD) / PDGF-AA least square means % baseline±SEM: IPF patients
Description: as §1, §2, §3

[1] = Plasma pharmacokinetics, part 1 (healthy subjects)
Description: Subjects were discharged 24 h post-dose (day 2) provided there were no safety concerns, and returned for three outpatient visits on days 3, 8 and 14 post-dose, with a post-study follow-up between days 26 and 30. Safety and PK assessments were made at predetermined time-points.
Full plasma PK profiles were conducted on days 1 (first day of dosing) and 14 (last day of dosing). […] Standard noncompartmental methods were applied to derive PK parameters using Phoenix WinNonlin version 6.3 (Certara, Sheffield, UK). […] Drug compartment measurements in BAL alveolar macrophages and fluid were determined as described previously.

Gal-1 = experiment: Plasma biomarker Gal-1; details: for Galectin-1 raw data, Mean (SD) / Gal-1 least square means % baseline±SEM: IPF patients
Description: as §1, §2, §3

Osteopontin = experiment: Plasma biomarker osteopontin; details: for Osteopontin raw data, Mean (SD) / Osteopontin least square means % baseline±SEM: IPF patients
Description: as §1, §2, §3

TIMP-1 = experiment: Plasma biomarker TIMP-1; details: for TIMP1 raw data, Mean (SD) / TIMP-1 least square means % baseline±SEM: IPF patients
Description: as §1, §2, §3

CCL2 (MCP-1) = experiment: Plasma biomarker CCL2; details: for CCL2 (MCP-1) raw data, Mean (SD) / CCL2 (MCP-1) least square means % baseline±SEM: IPF patients
Description: as §1, §2, §3

MMP-7 = experiment: Plasma biomarker MMP-7; details: for MMP-7 raw data, Mean (SD) / MMP-7 least square means % baseline±SEM: IPF patients
Description: as §1, §2, §3

[2] = human, inhaled or intranasal, single inhaled 1.5 mg, mean±SD
[3] = human, inhaled or intranasal, single inhaled 3 mg, mean±SD
[4] = human, inhaled or intranasal, single inhaled 10 mg, mean±SD
[5] = human, inhaled or intranasal, single inhaled 20 mg, mean±SD
[6] = human, inhaled or intranasal, single inhaled 50 mg, mean±SD

## OC[C@H]1O[C@@H](S[C@@H]2O[C@H](CO)[C@H](O)[C@H](n3cc(-c4cccc(F)c4)nn3)[C@H]2O)[C@H](O)[C@@H](n2cc(-c3cccc(F)c3)nn2)[C@H]1O [TD139]
MIF; 10 mg vs placebo, ANCOVA
  MIF difference in least square means % baseline (95% CI): −120.2 (−339.2–98.9) % baseline
MIF; Day 14, 0.3 mg
  MIF raw data, Mean (SD): 65871.3 (42284.53) pg/ml
MIF; Day 14, 3 mg
  MIF raw data, Mean (SD): 38884 (35236.82) pg/ml
MIF; Day 14, 10 mg
  MIF raw data, Mean (SD): 39660.6 (57202.1) pg/ml
MIF; day 14, 0.3 mg once daily
  MIF least square means % baseline±SEM: 123.6±83.6 % baseline
MIF; day 14, 3 mg once daily
  MIF least square means % baseline±SEM: 95.9±83.9 % baseline
MIF; day 14, 10 mg once daily
  MIF least square means % baseline±SEM: 73.9±83.7 % baseline
PDGF-AA; 10 mg vs placebo, ANCOVA
  PDGF-AA difference in least square means % baseline (95% CI): −129.7 (−295.3–35.8) % baseline
PDGF-AA; Day 14, 0.3 mg
  PDGF-AA raw data, Mean (SD): 1299.7 (754.57) pg/ml
PDGF-AA; Day 14, 3 mg
  PDGF-AA raw data, Mean (SD): 4075.9 (5511.46) pg/ml
PDGF-AA; Day 14, 10 mg
  PDGF-AA raw data, Mean (SD): 2556.7 (987.79) pg/ml
PDGF-AA; day 14, 0.3 mg once daily
  PDGF-AA least square means % baseline±SEM: 61.7±60.6 % baseline
PDGF-AA; day 14, 3 mg once daily
  PDGF-AA least square means % baseline±SEM: 117.1±62.1 % baseline
PDGF-AA; day 14, 10 mg once daily
  PDGF-AA least square means % baseline±SEM: 83.6±61.2 % baseline
[1]; [2]
  AUC(0-inf): 17.9 ± 14 ng·h/mL
  half-life: 1.13 ± 0.63 h
[1]; human, inhaled or intranasal, single inhaled 1.5 mg, mean±SD, read-out: Cmax
  Cmax: 2.37 ± 1.48 ng/mL
[1]; [3]
  AUC(0-inf): 70.8 ± 22.7 ng·h/mL
  half-life: 3 ± 0.82 h
[1]; human, inhaled or intranasal, single inhaled 3 mg, mean±SD, read-out: Cmax
  Cmax: 8.21 ± 2.67 ng/mL
[1]; [4]
  AUC(0-inf): 184 ± 64.5 ng·h/mL
  half-life: 1.19 ± 0.94 h
[1]; human, inhaled or intranasal, single inhaled 10 mg, mean±SD, read-out: Cmax
  Cmax: 22.6 ± 8.69 ng/mL
[1]; [5]
  AUC(0-inf): 544 ± 114 ng·h/mL
  half-life: 1.31 ± 1.8 h
[1]; human, inhaled or intranasal, single inhaled 20 mg, mean±SD, read-out: Cmax
  Cmax: 81.1 ± 27 ng/mL
[1]; [6]
  AUC(0-inf): 1160 ± 532 ng·h/mL
  half-life: 0.81 ± 0.8 h
[1]; human, inhaled or intranasal, single inhaled 50 mg, mean±SD, read-out: Cmax
  Cmax: 126 ± 43.3 ng/mL
[1]; single inhaled 0.15 mg, BLQ: below limit of quantification (0.5 ng·mL^−1)
  Cmax: BLQ
Gal-1; 10 mg vs placebo, ANCOVA
  Gal-1 difference in least square means % baseline (95% CI): −16.6 (−60.0–26.7) % baseline
Gal-1; Day 14, 0.3 mg
  Galectin-1 raw data, Mean (SD): 41996.4 (7357.87) pg/ml
Gal-1; Day 14, 3 mg
  Galectin-1 raw data, Mean (SD): 60416.7 (17348.65) pg/ml
Gal-1; Day 14, 10 mg
  Galectin-1 raw data, Mean (SD): 48409.7 (21339.06) pg/ml
Gal-1; day 14, 0.3 mg once daily
  Gal-1 least square means % baseline±SEM: 93.1±16.7 % baseline
Gal-1; day 14, 3 mg once daily
  Gal-1 least square means % baseline±SEM: 120.2±16.6 % baseline
Gal-1; day 14, 10 mg once daily
  Gal-1 least square means % baseline±SEM: 89.7±16.6 % baseline
Osteopontin; 10 mg vs placebo, ANCOVA
  Osteopontin difference in least square means % baseline (95% CI): −26.8 (−88.0–34.3) % baseline
Osteopontin; Day 14, 0.3 mg
  Osteopontin raw data, Mean (SD): 37756 (20451.51) pg/ml
Osteopontin; Day 14, 3 mg
  Osteopontin raw data, Mean (SD): 31032.4 (13230.48) pg/ml
Osteopontin; Day 14, 10 mg
  Osteopontin raw data, Mean (SD): 48630.5 (37737.51) pg/ml
Osteopontin; day 14, 0.3 mg once daily
  Osteopontin least square means % baseline±SEM: 106.2±23.9 % baseline
Osteopontin; day 14, 3 mg once daily
  Osteopontin least square means % baseline±SEM: 84±23.7 % baseline
Osteopontin; day 14, 10 mg once daily
  Osteopontin least square means % baseline±SEM: 91.3±23.4 % baseline
TIMP-1; 10 mg vs placebo, ANCOVA
  TIMP-1 difference in least square means % baseline (95% CI): 3.8 (−10.6–18.2) % baseline
TIMP-1; Day 14, 0.3 mg
  TIMP1 raw data, Mean (SD): 38084.3 (4735.81) pg/ml
TIMP-1; Day 14, 3 mg
  TIMP1 raw data, Mean (SD): 49880.6 (1032.27) pg/ml
TIMP-1; Day 14, 10 mg
  TIMP1 raw data, Mean (SD): 45458.7 (11908.04) pg/ml
TIMP-1; day 14, 0.3 mg once daily
  TIMP-1 least square means % baseline±SEM: 88.6±5.8 % baseline
TIMP-1; day 14, 3 mg once daily
  TIMP-1 least square means % baseline±SEM: 107.0±6.0 % baseline
TIMP-1; day 14, 10 mg once daily
  TIMP-1 least square means % baseline±SEM: 106.0±5.5 % baseline
CCL2 (MCP-1); 10 mg vs placebo, ANCOVA
  CCL2 (MCP-1) difference in least square means % baseline (95% CI): −71.7 (−187.1–43.7) % baseline
CCL2 (MCP-1); Day 14, 0.3 mg
  CCL2 (MCP-1) raw data, Mean (SD): 133.8 (15.06) pg/ml
CCL2 (MCP-1); Day 14, 3 mg
  CCL2 (MCP-1) raw data, Mean (SD): 137.6 (63.21) pg/ml
CCL2 (MCP-1); Day 14, 10 mg
  CCL2 (MCP-1) raw data, Mean (SD): 270.3 (348.45) pg/ml
CCL2 (MCP-1); day 14, 0.3 mg once daily
  CCL2 (MCP-1) least square means % baseline±SEM: 126.7±39.3 % baseline
CCL2 (MCP-1); day 14, 3 mg once daily
  CCL2 (MCP-1) least square means % baseline±SEM: 93.7±38.7 % baseline
CCL2 (MCP-1); day 14, 10 mg once daily
  CCL2 (MCP-1) least square means % baseline±SEM: 89.4±43.5 % baseline
MMP-7; 10 mg vs placebo, ANCOVA
  MMP-7 difference in least square means % baseline (95% CI): −82.0 (−237.9–73.9) % baseline
MMP-7; Day 14, 0.3 mg
  MMP-7 raw data, Mean (SD): 447.6 (205.21) pg/ml
MMP-7; Day 14, 3 mg
  MMP-7 raw data, Mean (SD): 1849.2 (2244.12) pg/ml
MMP-7; Day 14, 10 mg
  MMP-7 raw data, Mean (SD): 1130.6 (939.62) pg/ml
MMP-7; day 14, 0.3 mg once daily
  MMP-7 least square means % baseline±SEM: 79.3±59.2 % baseline
MMP-7; day 14, 3 mg once daily
  MMP-7 least square means % baseline±SEM: 82.3±58.4 % baseline
MMP-7; day 14, 10 mg once daily
  MMP-7 least square means % baseline±SEM: 84.4±58.7 % baseline
